The text below walks through data of patent US20030229134A1, “Methods for stimulating nervous system regeneration and repair by inhibiting phosphodiesterase type 4” (priority 2000, published 2003).

Data set [1] concerns rats with moderate spinal cord contusion. Briefly: Moderate contusive injury to the spinal cord; BBB test of hindlimb locomotion. It counts as in vivo, rat. The text has this: A “BBB Score” is the result of a test developed by Basso, Beattie and Bresnahan as a modifed 21-point open field locomoter scale on which to measure the extent of recovery of motor function in rats with after spinal cord injury. See, e.g, Basso et al., J. Neurotrauma 13(7):343-59 (1996); Beattie et al. (1997), herein incorporated by reference.
Adult rat spinal cord were exposed and injured with a weight drop device (NYU). See Beattie et al. (1997) and Basso et al. (1996). At the same time as the injury was inflicted, rolipram was delivered subcutaneously via minipumps at 0.07 nmol/kg/hour for 2 weeks. One week after injury, Schwann cells, which had been grown and purified in culture, were injected into the lesion site along with 4 injections, each of 0.2 ul, of 1 mM dbcAMP. As a negative control, animals were injected with Schwann cells alone. Other animals were administered dbcAMP and Schwann cells. One group of animals was administered four injections, each of 0.2 ul, of 1 mM dbcAMP one week after injury. Another group was administered four injections, each of 0.2 ul, of 50 mM dbcAMP one week after injury. Another group was administered four injections, each of 0.2 ul, of 50 mM dbcAMP one day after injury. Animals were assessed on a weekly basis for hindlimb locomotion using the BBB test.

Data set [2] deals with cerebellar neurons on purified, immobilized myelin. Briefly: Priming of cerebellar neurons with rolipram; neurite outgrowth on purified, immobilized myelin. The class given is cell-based, rat. The note with it: priming with rolipram 0.25 uM, FIG. 2B. On the procedure:
Isolated cerebellar neurons in SATO media (prepared as in Example 1) were plated onto poly-L-lysine-coated dishes at 1×10^6 cells/dish. Where indicated, either BDNF at a concentration of 200 ng/ml, or rolipram at a concentration 0.1 uM or 0.25 uM (all from Sigma) was added. After culture for 18 hours (termed priming), neurons were removed with 0.1% trypsin. Trypsinization was stopped by adding 5 ml of DMEM containing 10% FCS. The primed neurons were centrifuged at 800 rpm for 6 min and resuspended in SATO media. The concentration of cells were adjusted to 6×10^4 cells/ml. […] Myelin was prepared as described previously (Cai et al., 1999) from rat CNS white matter. Neurons were cultured overnight before being fixed and immunostained for GAP43 to visualize the neurites. The length of the longest neurite per neuron, from 180-200 neurons, was measured. Results are presented as the average length+/−SEM in micrometers (um). (See, e.g., U.S. Pat. Nos. 5,932,542 and 6,203,792).

The test system of data set [3] is DRG neurons on MAG-expressing CHO cells. As to the kind of experiment: Subcutaneous rolipram injections into P30 rats; neurite outgrowth of isolated DRG neurons on MAG-expressing CHO cells. It counts as in vivo, rat. As for the experimental part: In order to determine whether a PDE4 specific inhibitor could be used to prime neurons in vivo and prevent inhibition of neurite outgrowth by myelin and MAG, rolipram was injected subcutaneously into P12 and P30 rats every 3 hours for 24 hours. For all experiments, rolipram was dissolved in DMSO and sterile saline was added to adjust the concentrations. The final volume of the rolipram solution was 0.2 ml for each injection. At each time point, a single rolipram injection was given. Rolipram was injected subcutaneously with insulin syringes (Becton Dickinson 1 ccU-100 insulin Syringe) under the skin of the rat's neck (for all experiments) and in various other regions (only for first experiment using P12 rats). Control animals were injected with a 0.2 ml mixture of DMSO and sterile saline without rolipram, following the same schedule.
In a second series of experiments, we injected increasing concentrations of rolipram subcutaneously into older animals (postnatal day 30; P30) every 3 hours for 24 hours and, as above, studied neurite outgrowth of isolated DRG neurons in the presence or absence of MAG.
(§1) DRG neurons were isolated from control and treated P30 animals and plated onto a monolayer of MAG-expressing CHO cells or a monolayer of control CHO cells. Neurons were cultured overnight before being fixed and immunostained for GAP43 to visualize the neurites, as described in Example 1. The length of the longest neurite per neuron from 180-200 neurons was measured. Results are expressed as a percentage of growth of the neurons isolated from control animals and are shown as the average length+/−SEM presented as a percentage of growth on control cells.
We next determined whether the effects of rolipram were time dependent. Rolipram (0.5 umol/kg) was administered by repeated subcutaneous injections to P30 rats for increasing amounts of time. DRG neurons were isolated from control and treated animals and plated onto a monolayer of MAG-expressing CHO cells or a monolayer of control CHO cells. Neurons were cultured overnight before being fixed and immunostained for GAP43 to visualize the neurites. The lengths of the longest neurite per neuron from 180-200 neurons were measured. Results are expressed as a percentage of growth of the neurons isolated from control animals and are shown as the average length+/−SEM presented as percentage of growth on control cells.

The test system of data set [4] is rat model of arthritis. The settings on record: higher concentrations (5-10 and 20 umol/kg), rats; cited from earlier work.
Data set [5] has as its system DRG neurons on MAG-expressing CHO cells. As to the kind of experiment: Continuous subcutaneous rolipram delivery by minipumps to P30 rats; neurite outgrowth of isolated DRG neurons on MAG-expressing CHO cells. The class given is in vivo, rat. The note with it: for axonal outgrowth in the presence of MAG and on control CHO cells: minipump 0.4 umol/kg/hour. As for the experimental part:
Rolipram was delivered subcutaneously with ALZET 2001 minipumps. Minipumps were inserted subcutaneously under the skin of the animals' backs. Two minipumps were used for each animal; the combined flow rate was 2 ul/hour. Rolipram was dissolved in DMSO and sterile saline was added to adjust the doses of rolipram that were released from minipumps every hour. After 24 hours of treatment, DRG neurons were isolated from control and treated animals and plated onto a monolayer of MAG-expressing CHO cells or a monolayer of control CHO cells. Neurons were cultured overnight before being fixed and immunostained for GAP43 to visualize the neurites. The length of the longest neurite per neuron from 180-200 neurons was measured. Results are expressed as a percentage of growth of the neurons isolated from control animals and are shown as the average length+/−SEM presented as percentage of growth on control cells.
as §1, with “In order to determine whether longer continuous treatment with a PDE4 inhibitor would increase the relief of inhibition of neurite outgrowth by myelin or MAG, rolipram was administered subcutaneously by minipump (0.4 umol/kg/hour). After 1, 2 or 3 days of continuous rolipram treatment, DRG” for “DRG”, “treated” for “treated P30”, “neurites.” for “neurites, as described in Example 1.”, “length+/−SEM,” for “length+/−SEM”

For data set [6], the system named is mice. The note with it: cited from earlier work.

For `COc1ccc(C2CNC(=O)C2)cc1OC1CCCC1` (stereo not drawn) [rolipram], the “motor skill recovery as measured by the BBB score” value in data set [1] (adult rats, minipump s.c. 0.07 nmol/kg/hour for 2 weeks plus Schwann cells and 4 injections of 1 mM dbcAMP one week after injury, from 2 up to 7 weeks after injury) is given as “significantly improved”. The BBB score achieved result in data set [1] (continuous rolipram plus Schwann cells and dbcAMP, greater than 15 is scored as complete recovery) is on record as “greater than 15”. Also, the “inhibition of axonal growth by myelin after priming” value in data set [2] is “overcomes inhibition”. The “length of the neurites, 1, 2 and 3 days of treatment compared” value in data set [3] (0.5 umol/kg intermittent s.c. injections every three hours) is on record as “no significant difference”. For the same compound, the “length of the axons of DRG neurons, 24 hours treatment in comparison to 6 hours” value in data set [3] (0.5 umol/kg repeated s.c. injections, FIG. 5) is “increased”. Also, the “inhibition of axonal outgrowth by MAG” value in data set [3] (0.1-2.0 umol/kg s.c. every 3 hours for 24 hours, FIG. 4) is reported as “blocked (i.e., relieved) by rolipram in a dose-dependent manner”. In addition, in data set [3] (s.c. every 3 hours for 24 hours), the “most effective subcutaneous dose for relieving MAG inhibition” value is 0.5 µmol/kg. Further, the side effects entry in data set [4] and in data set [6] (0.1-3.0 umol/kg) was “No side effects” each time. The “axonal outgrowth in the presence of MAG and on control CHO cells” value in data set [5] (2 days) is on record as “significantly promoted”; in data set [5] (3 days), “even further promoted”. Moreover, the “optimal continuous dose for subsequent neuronal growth and regeneration” value in data set [5] (s.c. minipump, 0.4, 0.5, 0.7 umol/kg/hour tested) was determined as 0.4 µmol/kg/h. Further, in data set [5] (s.c. minipump, 24 hours), the “inhibition of DRG neurons by MAG after 24 hours of continuous treatment” value is on record as “no longer inhibited by MAG”. In addition, the memory improving effects result in data set [6] (3.0 umol/kg) was “did not have memory improving effects”. Moreover, the “performance in a hippocampus-dependent memory task” value in data set [6] (mice, 0.1 umol/kg s.c.) is reported as “improved the performance”.
